Results published in US9644194B2, “Cold-adapted protease derived from Pseudoalteromonas arctica PAMC 21717 and uses thereof” (KOREA INSTITUTE OF OCEAN SCIENCE & TECHNOLOGY, priority 2014, dated 2017).

Key:
W-Pro21717 [1] = test: Activity and stability of W-Pro21717 in the presence of metal ions and surfactants; assay type: biochemical, Pseudoalteromonas arctica PAMC 21717; conditions: 1 mM, on ice for 1 hour, FIG. 3; for influence on the activity of W-Pro21717: result in words
Procedure: In order to analyze the influence of metal ions and detergents, W-[…] was allowed to react with a standard buffer containing 1 mM BaCl2, CuSO4, MgSO4, CaCl2, ZnSO4, FePO4, KCl, NaCl, […], sodium linear alkylbenzene sulfonate (LAS) or SDS on ice for 1 hour. In addition, the compatibility of W-[…] with a commercial detergent (LG Household & Health Care, Korea; containing subtilisin Carlsberg) was analyzed using skim milk at temperatures of 10° C. and 30° C.

W-Pro21717 [2] = test: Effect of protease inhibitors on W-Pro21717 activity; assay type: biochemical, Pseudoalteromonas arctica PAMC 21717; conditions: result in words
Procedure: (§1) The reaction solution was centrifuged, and then filtered through a filter having a pore size of 0.45 μm, and the filtrate was mixed and reacted with Folin & Ciocalteu's phenol solution and 500 mM sodium carbonate solution at 37° C. for 30 minutes. Next, the enzymatic activity of the reaction product was measured at 660 nm based on an L-tyrosine standard curve, and an amino acid production of 1 nmole/min/mg at 25° C. was defined as the activity of 1 unit of protease.
The kind of W-Pro21717 was analyzed by reactions with various protease inhibitors.

[3] = Substrate specificity of W-Pro21717 with synthetic peptides; assay type: biochemical; conditions: 25° C., 10 minutes, 410 nm
Procedure: The substrate specificity of W-Pro21717 was analyzed using 5 mM of each of the following 7 different synthetic peptides: N-succinyl-Ala-Ala-Val-p-nitroanilide (AAV), N-succinyl-Ala-Ala-Pro-Leu-p-nitroanilide (AAPL), N-succinyl-Ala-Ala-Ala-p-nitroanilide (AAA), N-succinyl-Gly-Gly-Phe-p-nitroanilide (GGF), N-succinyl-Thr-Leu-Val-p-nitroanilide (TLV), N-succinyl-Ala-Ala-Pro-Phe-p-nitroanilide (AAPF), and N-succinyl-Ala-Ala-Val-Ala-p-nitroanilide (AAVA). W-Pro21717 was allowed to react with a standard buffer containing 0.83 mM substrate at 25° C. for 10 minutes, and then the relative activity thereof was measured at 410 nm.

azocasein [4] = test: Activity and stability of W-Pro21717 with temperature and pH; assay type: biochemical
Procedure: as §1, with “In order to measure the degradation activity of W-Pro21717, the cultured PAMC 21717 cells were centrifuged at 4° C. at 12,000×g for 30 minutes, and the supernatant was mixed with 50 mM sodium phosphate buffer (pH 7.6) containing 0.65% azocasein substrate, and was allowed to at 25° C. for 1 hour, and then additionally allowed to react at 37° C. for 1 hour after adding 110 mM trichloroacetic acid thereto. The” for “The”
A temperature optimal for the activity of W-Pro21717 was analyzed in the temperature range of 0 to 60° C., and the optimum pH was analyzed by 1-hour reactions in 50 mM sodium acetate (pH 2.0-6.0), 50 mM potassium phosphate (pH 7.0-10.0) and 50 mM sodium tetraborate (pH 10.0). As a control, 3 μg of the commercial protease Carlsberg subtilisin was used.

azocasein [5] = test: Activity and stability of R-Pro21717 with temperature and pH; assay type: biochemical
Procedure: In order to determine a temperature optimal for the activity of the protease, R-Pro21717 was allowed to react at varying temperatures of 0˜70° C., and then analyzed. The stability of R-Pro21717 against temperature was analyzed by allowing R-Pro21717 at varying temperatures of 0˜70° C. for 1 hour, and then allowing R-Pro21717 to react a 0.65% azocasein-containing standard buffer at 30° C. for 30 minutes. As a control enzyme, Carlsberg subtilisin was used.
In order to determine a pH optimal for the activity of the protease, R-Pro21717-containing buffers having varying pHs were allowed to react at 30° C., and then analyzed. The stability of R-Pro21717 against pH was analyzed by allowing R-Pro21717-containing buffers having varying pHs to react on ice for 1 hour, and then reacting R-Pro21717 in 0.65% azocasein-containing standard buffer at 30° C. for 30 minutes. Carlsberg subtilisin was used as a control enzyme and analyzed at a reaction temperature of 40° C.

Molecule: [Ba+2].[Cl-].[Cl-] [Ba^2+, BaCl2]
- influence on the activity of W-Pro21717 (W-Pro21717 [1]): did not influence

Molecule: [Ca+2].[Cl-].[Cl-] [Ca^2+, CaCl2]
- influence on the activity of W-Pro21717 (W-Pro21717 [1]): did not influence

Molecule: O=S(=O)([O-])[O-].[Cu+2] [CuSO4]
- increase of the activity of W-Pro21717 (W-Pro21717 [1]): about 60%

Molecule: O=C(O)CN(CCN(CC(=O)O)CC(=O)O)CC(=O)O [EDTA]
- effect of inhibitor on the activity of W-Pro21717 (W-Pro21717 [2]): slightly inhibited

Molecule: [Fe+2] [Fe^2+, FePO4]
- influence on the activity of W-Pro21717 (W-Pro21717 [1]): did not influence

Molecule: [Cl][Hg][Cl] [HgCl2]
- effect of inhibitor on the activity of W-Pro21717 (W-Pro21717 [2]): inhibited

Molecule: [Cl-].[K+] [K^+, KCl]
- influence on the activity of W-Pro21717 (W-Pro21717 [1]): did not influence

Molecule: O=S(=O)([O-])[O-].[Mg+2] [Mg^2+, MgSO4]
- influence on the activity of W-Pro21717 (W-Pro21717 [1]): did not influence

Molecule: [Cl-].[Na+] [Na^2+, NaCl]
- influence on the activity of W-Pro21717 (W-Pro21717 [1]): did not influence

Molecule: O=S(=O)(F)Cc1ccccc1 [PMSF]
- effect of inhibitor on the activity of W-Pro21717 (W-Pro21717 [2]): inhibited

Molecule: O=S(=O)([O-])[O-].[Zn+2] [Zn^2+, ZnSO4]
- influence on the activity of W-Pro21717 (W-Pro21717 [1]): did not influence

B1: Subtilisin Carlsberg: commercial protease used as control enzyme (protein, UniProt P00780 106-379, looked up)
Subtilisin Carlsberg: AQTVPYGIPLIKADKVQAQGFKGANVKVAVLDTGIQASHPDLNVVGGASFVAGEAYNTDGNGHGTHVAGTVAALDNTTGVLGVAPSVSLYAVKVLNSSGSGSYSGIVSGIEWATTNGMDVINMSLGGASGSTAMKQAVDNAYAKGVVVVAAAGNSGSSGNTNTIGYPAKYDSVIAVGAVDSNSNRASFSSVGAELEVMAPGAGVYSTYPTNTYATLNGTSMASPHVAGAAALILSKHPNLSASQVRNRLSSTATYLGSSFYYGKGLINVEAAAQ
- Relative activity (%) ([3]; substrate AAPF): 100%
- Relative activity (%) ([3]; substrate GGF): 0%
- temperature optimal for the activity (azocasein [4]; tested 0 to 60° C., FIG. 2A): 60 °C
- decrease in activity after a reaction at 40° C. for 1 hour (azocasein [4]; thermal stability, FIG. 2B): 80%
- temperature at which stability / enzymatic activity decreases (azocasein [5]; 1 hour at temperature, then azocasein 30° C. 30 minutes, FIG. 9B): ≥ 50 °C
- pH of highest activity (azocasein [5]; FIG. 9C): same results as those of R-Pro21717
- pH optimal for the stability (azocasein [5]; on ice for 1 hour, FIG. 9D): same results as those of R-Pro21717
- proteolytic activity at low temperature relative to the highest activity (azocasein [5]; printed 'at or'): did not show proteolytic activity
- temperature optimal for the activity (azocasein [5]; tested 0˜70° C., FIG. 9A): 60 °C
